Assay results reported in patent US7932281B2, “Amine-based compound and use thereof” (Kureha Corporation, priority 2004, dated 2011).

Legend:
[1] = test system: HIV-1IIIB infected MT-4 cells; test: Anti-HIV activity, HIV-1IIIB infected MT-4 cells, MTT method (Test Example 1); assay type: cell-based; settings: Human immunodeficiency virus 1, MT4, 120 h, concentration required for inhibition of cell disorder due to HIV infection by 50%, MOI 0.01, 5 days
Experimental: Immediately after infection, HIV-1IIIB infected MT-4 cells (3.0×10^4/well, MOI (Multiplicity of infection): 0.01) were added to a 96-well microtiter plate together with the test compounds having different concentrations. The cells were cultured in a carbon dioxide incubator at 37° C. for 5 days, and the number of living cells was measured in accordance with the MTT (tetrazolium) method ([…], et al., J. of Virol. Method, 20, 309-321 […]). The antiviral activity is represented by the concentration required for inhibition of cell disorder due to HIV infection by 50% (EC50: 50% Effective Concentration) (μM), and the results are shown in Table 2.

SD mice = test: Acute toxicity, single transvenous administration (Test Example 3); assay type: in vivo; settings: 6-week-old male SD mice, 2.5 mg/kg transvenously once in physiological saline
Experimental: The aforementioned compound was examined for acute toxicity. Specifically, 6-week-old SD mice (male) were divided into several groups (2 to 3 mice in each group). Subsequently, each of the compounds of Examples was dissolved in a physiological saline solution, and the solution was transvenously administered to the mice (dose: 2.5 mg/kg) once. Then, the number of dead mice was counted.

CXCR4 = molecular target: T1, CXCR4 (Homo sapiens, UniProt P61073); test: Inhibition of 125I-SDF-1α binding to receptors CXCR4 on MT-4 cells (Test Example 2); settings: binding-inhibition % at 0.01 μM, 2 hours under ice-cooling, read-out: Inhibition rate (%)
T1 construct: endogenous in cells; host or cells: MT-4 cells
T1 sequence (P61073 whole entry): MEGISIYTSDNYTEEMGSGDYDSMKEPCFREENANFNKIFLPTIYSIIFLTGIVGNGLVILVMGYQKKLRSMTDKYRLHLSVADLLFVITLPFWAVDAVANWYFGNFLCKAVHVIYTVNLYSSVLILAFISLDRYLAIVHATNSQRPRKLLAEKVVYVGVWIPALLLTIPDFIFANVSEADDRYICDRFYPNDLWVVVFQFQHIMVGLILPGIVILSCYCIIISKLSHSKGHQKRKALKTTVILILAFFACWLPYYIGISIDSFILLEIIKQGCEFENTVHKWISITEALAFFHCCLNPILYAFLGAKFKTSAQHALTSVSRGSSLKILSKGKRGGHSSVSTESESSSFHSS
Experimental: MT-4 cells (5×10^6/0.2 ml/well) were cultured on a 24-well microtiter plate. After the cells were incubated for 24 hours at 37° C. in a carbon dioxide gas incubator, a culture medium was replaced with a buffer solution (0.1% BSA-containing RPMI-1640). Together with a ligand ^125I-SDF-1α (specific activity: 2,200 Ci/mmol; available from Daiichi Pure Chemicals Co., Ltd. (Tokyo)), test materials with various concentrations were subjected to a binding reaction for 2 hours under ice-cooling. […] Then, a rate of inhibition of the binding between radioactive ligands and receptors CXCR4 by a test material was calculated (a binding-inhibition % at 0.01 μM).

CCCN(CCC)CCCCN(Cc1ccc(CN(Cc2ncc[nH]2)Cc2nccn2C)cc1)c1ccccc1 [Compound No. 24, N-(4-{[(1H-imidazol-2-ylmethyl)-(1-methyl-1H-imidazol-2-ylmethyl)-amino]-methyl}-benzyl)-N-phenyl-N′,N′-dipropyl-butane-1,4-diamine]
EC50 [1]: 95 nM | Dead mice/test mice (SD mice): 0/3 | inhibition at 0.01 µM (CXCR4): 50.1%

CCCN(CCC)CCCCN(C)C(=O)Nc1ccc(CN(Cc2ncc[nH]2)Cc2nccn2C)cc1 [Compound No. 26, 1-(4-dipropylamino-butyl)-3-(4-{[(1H-imidazol-2-ylmethyl)-(1-methyl-1H-imidazol-2-ylmethyl)-amino]-methyl}-phenyl)-1-methyl-urea]
EC50 [1]: 73 nM | Dead mice/test mice (SD mice): 0/3 | inhibition at 0.01 µM (CXCR4): 57.3%

CCCN(CCC)CCCCN(C)C(=O)N(C)c1ccc(CN(Cc2ncc[nH]2)Cc2nccn2C)cc1 [Compound No. 27, 1-(4-dipropylamino-butyl)-3-(4-{[(1H-imidazol-2-ylmethyl)-(1-methyl-1H-imidazol-2-ylmethyl)-amino]-methyl}-phenyl)-1,3-dimethyl-urea]
EC50 [1]: 230 nM | Dead mice/test mice (SD mice): 0/3 | inhibition at 0.01 µM (CXCR4): 43.4%

CCCN(CCC)Cc1ccc(-c2nc3ccc(CN(Cc4ncc[nH]4)Cc4nccn4C)cc3n2C)cc1 [Compound No. 29, [4-(6-{[(1H-imidazol-2-ylmethyl)-(1-methyl-1H-imidazol-2-ylmethyl)-amino]-methyl}-1-methyl-1H-benzimidazol-2-yl)-benzyl]-dipropyl-amine]
EC50 [1]: 61 nM | Dead mice/test mice (SD mice): 0/3 | inhibition at 0.01 µM (CXCR4): 71.2%

CCCN(CCC)CCCCNC(=O)c1cn2cc(CN(Cc3ncc[nH]3)Cc3nccn3C)ccc2n1 [Compound No. 30]
EC50 [1]: 92 nM | Dead mice/test mice (SD mice): 0/3 | inhibition at 0.01 µM (CXCR4): 46%

CCCN(CCC)CCCCN(Cc1ccc(CN(Cc2ncc[nH]2)Cc2nccn2C)cc1)CC(F)(F)F [Compound No. 31, N-(4-{[(1H-imidazol-2-ylmethyl)-(1-methyl-1H-imidazol-2-ylmethyl)-amino]-methyl}-benzyl)-N′,N′-dipropyl-N-(2,2,2-trifluoro-ethyl)-butane-1,4-diamine]
EC50 [1]: 74 nM | Dead mice/test mice (SD mice): 0/3 | inhibition at 0.01 µM (CXCR4): 47.3%

CCCN(CCC)CCCCN(CCC#N)Cc1ccc(CN(Cc2ncc[nH]2)Cc2nccn2C)cc1 [Compound No. 33, 3-[(4-dipropylamino-butyl)-(4-{[(1H-imidazol-2-ylmethyl)-(1-methyl-1H-imidazol-2-ylmethyl)-amino]-methyl}-benzyl)-amino]-propionitrile]
EC50 [1]: 3 nM | Dead mice/test mice (SD mice): 0/3 | inhibition at 0.01 µM (CXCR4): 85.2%

CCCN(CCC)CCCCN(CCC(=O)OC)Cc1ccc(CN(Cc2ncc[nH]2)Cc2nccn2C)cc1 [Compound No. 34, 3-[(4-dipropylamino-butyl)-(4-{[(1H-imidazol-2-ylmethyl)-(1-methyl-1H-imidazol-2-ylmethyl)-amino]-methyl}-benzyl)-amino]-propionic acid methyl ester]
EC50 [1]: 3 nM | Dead mice/test mice (SD mice): 0/3 | inhibition at 0.01 µM (CXCR4): 85.5%

CCCN(CCC)CCCCNC(=S)Nc1ccc(CN(Cc2ncc[nH]2)Cc2nccn2C)cc1 [Compound No. 35, 1-(4-dipropylamino-butyl)-3-(4-{[(1H-imidazol-2-ylmethyl)-(1-methyl-1H-imidazol-2-ylmethyl)-amino]-methyl}-phenyl)-thiourea]
EC50 [1]: 7 nM | Dead mice/test mice (SD mice): 0/3 | inhibition at 0.01 µM (CXCR4): 86.3%

CCCN(CCC)CCCc1cccc(-c2ccc(CN(Cc3ncc[nH]3)Cc3nccn3C)cc2)n1 [Compound No. 36, {3-[6-(4-{[(1H-imidazol-2-ylmethyl)-(1-methyl-1H-imidazol-2-ylmethyl)-amino]-methyl}-phenyl)-pyridin-2-yl]-propyl}-dipropyl-amine]
EC50 [1]: 656 nM | Dead mice/test mice (SD mice): 0/3 | inhibition at 0.01 µM (CXCR4): 58%

CCCN(CCC)CCCCN(Cc1ccc(CN(Cc2ncc[nH]2)Cc2nccn2C)cc1)C(=O)C(F)(F)F [Compound No. 37, N-(4-dipropylamino-butyl)-2,2,2-trifluoro-N-(4-{[(1H-imidazol-2-ylmethyl)-(1-methyl-1H-imidazol-2-ylmethyl)-amino]-methyl}-benzyl)-acetamide]
EC50 [1]: 3 nM | Dead mice/test mice (SD mice): 0/3 | inhibition at 0.01 µM (CXCR4): 92.3%

CN(CCCCN1CCCCC1)Cc1ccc(CN(Cc2ncc[nH]2)Cc2nccn2C)cc1 [Compound No. 44, (4-{[(1H-imidazol-2-ylmethyl)-(1-methyl-1H-imidazol-2-ylmethyl)-amino]-methyl}-benzyl)-methyl-(4-piperidin-1-ylbutyl)amine]
EC50 [1]: 2 nM | Dead mice/test mice (SD mice): 0/3 | inhibition at 0.01 µM (CXCR4): 81.6%

CCCN(CCC)CCCc1nc2ccc(CN(Cc3ncc[nH]3)Cc3nccn3C)cc2n1CCC [Compound No. 46, [3-(6-{[(1H-imidazol-2-ylmethyl)-(1-methyl-1H-imidazol-2-ylmethyl)-amino]-methyl}-1-propyl-1H-benzimidazol-2-yl)-propyl]-dipropyl-amine]
EC50 [1]: 17 nM | Dead mice/test mice (SD mice): 0/3 | inhibition at 0.01 µM (CXCR4): 74.6%

CCCN(CCC)CCCCc1nc2ccc(CN(Cc3ncc[nH]3)Cc3nccn3C)cc2n1C(C)C [Compound No. 47, [4-(6-{[(1H-imidazol-2-ylmethyl)-(1-methyl-1H-imidazol-2-ylmethyl)-amino]-methyl}-1-isopropyl-1H-benzimidazol-2-yl)-butyl]-dipropyl-amine]
EC50 [1]: 2 nM | Dead mice/test mice (SD mice): 0/3 | inhibition at 0.01 µM (CXCR4): 86.2%

CCCN(CCC)CCCCN(Cc1ccc(CN(Cc2ncc[nH]2)C2CCCc3cccnc32)cc1)S(C)(=O)=O (stereo not drawn) [Compound No. 50, N-(4-dipropylamino-butyl)-N-(4-{[(1H-imidazol-2-ylmethyl)-(5,6,7,8-tetrahydro-quinolin-8-yl)-amino]-methyl}-benzyl)-methanesulfonamide]
EC50 [1]: 401 nM | Dead mice/test mice (SD mice): 0/3 | inhibition at 0.01 µM (CXCR4): 53.4%

CCCN(CCC)CCCCN(CCC(=O)O)Cc1ccc(CN(Cc2ncc[nH]2)Cc2nccn2C)cc1 [Compound No. 51, 3-[(4-dipropylamino-butyl)-(4-{[(1H-imidazol-2-ylmethyl)-(1-methyl-1H-imidazol-2-ylmethyl)-amino]-methyl}-benzyl)-amino]-propionic acid]
EC50 [1]: 2 nM | Dead mice/test mice (SD mice): 0/3 | inhibition at 0.01 µM (CXCR4): 85.8%

CCCN(CCC)CCCCN(CC#N)Cc1ccc(CN(Cc2ncc[nH]2)Cc2nccn2C)cc1 [Compound No. 82, [(4-dipropylamino-butyl)-(4-[[(1H-imidazol-2-ylmethyl)-(1-methyl-1H-imidazol-2-ylmethyl)-amino]-methyl]-benzyl)-amino]-acetonitrile]
EC50 [1]: 3 nM | Dead mice/test mice (SD mice): 0/3 | inhibition at 0.01 µM (CXCR4): 82.3%

CCCN(CCC)CCCCN(CC(=O)OC)Cc1ccc(CN(Cc2ncc[nH]2)Cc2nccn2C)cc1 [Compound No. 83, [(4-dipropylamino-butyl)-(4-[[(1H-imidazol-2-ylmethyl)-(1-methyl-1H-imidazol-2-ylmethyl)-amino]-methyl]-benzyl)-amino]-acetic acid methyl ester]
EC50 [1]: 3 nM | Dead mice/test mice (SD mice): 0/3 | inhibition at 0.01 µM (CXCR4): 79.7%

CCCN(CCC)CCCCN(CC(=O)OC)Cc1ccc(CN(Cc2ncc[nH]2)Cc2ncc[nH]2)cc1 [Compound No. 87, [(4-[[bis-(1H-imidazol-2-ylmethyl)-amino]-methyl]-benzyl)-(4-dipropylamino-butyl)-amino]-acetic acid methyl ester]
EC50 [1]: 3 nM | Dead mice/test mice (SD mice): 0/3 | inhibition at 0.01 µM (CXCR4): 82.1%

CCCN(CCC)CCCCN(CC(=O)O)Cc1ccc(CN(Cc2ncc[nH]2)Cc2ncc[nH]2)cc1 [Compound No. 88, [(4-[[bis-(1H-imidazol-2-ylmethyl)-amino]-methyl]-benzyl)-(4-dipropylamino-butyl)-amino]-acetic acid]
EC50 [1]: 2 nM | Dead mice/test mice (SD mice): 0/3 | inhibition at 0.01 µM (CXCR4): 85%

CCCN(CCC)CCCCN(CC(=O)OCC)Cc1ccc(CN(Cc2ncc[nH]2)Cc2ncc[nH]2)cc1 [Compound No. 97, [(4-[[bis-(1H-imidazol-2-ylmethyl)-amino]-methyl]-benzyl)-(4-dipropylamino-butyl)-amino]-acetic acid ethyl ester]
EC50 [1]: 1 nM | Dead mice/test mice (SD mice): 0/3 | inhibition at 0.01 µM (CXCR4): 85.6%

CCCN(CCC)CCCCN(CC(=O)O)Cc1ccc(CN(Cc2nccn2C)Cc2nccn2C)cc1 [Compound No. 100, [(4-[[bis-(1-methyl-1H-imidazol-2-ylmethyl)-amino]-methyl]-benzyl)-(4-dipropylamino-butyl)-amino]-acetic acid]
EC50 [1]: 2 nM | Dead mice/test mice (SD mice): 0/3 | inhibition at 0.01 µM (CXCR4): 79.2%
